The source of these data is US9353104B2, “Substituted pyridizinone derivatives as PDE10 inhibitors” (priority 2013, dated 2016).

What is called Ki is a measure of affinity in units of concentration, obtained from inhibition or displacement.

human PDE10A2, sequence (Q9Y233 267-1055): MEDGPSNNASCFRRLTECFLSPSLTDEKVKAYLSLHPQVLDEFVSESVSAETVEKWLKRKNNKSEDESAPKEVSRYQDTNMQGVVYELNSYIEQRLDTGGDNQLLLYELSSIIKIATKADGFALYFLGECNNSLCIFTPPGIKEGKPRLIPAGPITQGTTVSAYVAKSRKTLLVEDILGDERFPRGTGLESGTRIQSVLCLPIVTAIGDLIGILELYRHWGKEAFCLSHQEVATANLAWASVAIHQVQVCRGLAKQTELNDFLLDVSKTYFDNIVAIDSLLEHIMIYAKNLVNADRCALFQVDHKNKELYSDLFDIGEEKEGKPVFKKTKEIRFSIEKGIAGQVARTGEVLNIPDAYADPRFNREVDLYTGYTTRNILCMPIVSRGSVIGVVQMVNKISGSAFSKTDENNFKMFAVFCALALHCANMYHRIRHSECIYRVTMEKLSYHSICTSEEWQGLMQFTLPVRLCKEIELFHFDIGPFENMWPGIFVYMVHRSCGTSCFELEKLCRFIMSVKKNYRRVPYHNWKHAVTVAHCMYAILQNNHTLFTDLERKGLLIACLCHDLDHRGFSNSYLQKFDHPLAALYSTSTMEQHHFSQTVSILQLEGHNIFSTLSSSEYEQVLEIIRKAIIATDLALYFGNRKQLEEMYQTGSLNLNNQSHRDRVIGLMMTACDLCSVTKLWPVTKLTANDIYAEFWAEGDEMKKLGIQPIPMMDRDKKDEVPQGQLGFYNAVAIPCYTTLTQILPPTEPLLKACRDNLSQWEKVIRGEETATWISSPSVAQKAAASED

The target of the experiment is human PDE10A2 (Homo sapiens (Human), UniProt Q9Y233). The experiment can be described thus: PDE10 fluorescence polarization (IMAP FP) inhibition assay. In kind it is biochemical. As to conditions: human PDE10A2 lysate, FAM-labeled cAMP 50 nM, room temperature; read-out: PDE10A Ki. The gist of the method:
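Cytoplasmic lysate of AD293 cells transiently expressing human PDE10A2, diluted for ~20% conversion of 50 nM FAM-cAMP, in 10 mM Tris pH 7.2, 10 mM MgCl2, 1 mM DTT, 0.01% Tween-20. Reaction 30 min at room temperature, read by IMAP fluorescence polarization; 10-point 3-fold titrations, 1% DMSO as 0%, reference PDE10 inhibitor at 5,000× Ki as 100%.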
On the technique in general: Fluorescence polarisation rises when a labelled molecule tumbles more slowly, as on binding a larger partner.
On to `CCn1ccc(CNc2cc(OC[C@H]3C[C@@H]3c3ccc(OC)cn3)nn(C)c2=O)n1` [Example 106, 4-(((1-ethyl-1H-pyrazol-3-yl)methyl)amino)-6-(((-1S,2S)-2-(5-methoxy-pyridin-2-yl)cyclopropyl-)methoxy)-2-methyl-pyridazin-3(2H)-one], for which the Ki is 5.89 nM.
With `COc1ccc([C@H]2C[C@@H]2COc2cc(NCc3ncccc3C)c(=O)n(C)n2)nc1` [Example 73, 6-(((1S,2S)-2-(5-methoxypyridin-2-yl)cyclopropyl)methoxy)-2-methyl-4-(((3-methyl-pyridin-2-yl)methyl)-amino)pyridazin-3(2H)one], the Ki was 32.3 nM.
The value for `Cc1cnn(C)c1CNc1cc(OC[C@H]2C[C@@H]2c2ccn(C)n2)nn(C)c1=O` [Example 86, 4-(((1,4-dimethyl-1H-pyrazol-5-yl)methyl)amino)-2-methyl-6-(((1S,2S)-2-(1-methyl-1H-pyrazol-3-yl)cyclopropyl)methoxy)-pyridazin-3(2H)-one] was 9.4 nM; that for `Cc1ccc(CNc2cc(OC[C@H]3C[C@@H]3c3ccc4c(n3)CCC4)nn(C)c2=O)c(C)n1` [Example 56, 6-(((1S,2S)-2-(6,7-dihydro-5H-cyclopenta-[b]pyridin-2-yl)cyclo-propyl)methoxy)-4-(((2,6-dimethylpyridin-3-yl)-methyl)amino)-2-methyl-pyridazin-3(2H)-one] was 0.002 nM; that for `COc1ccc([C@H]2C[C@@H]2COc2cc(NCc3ccc(C)nn3)c(=O)n(C)n2)nc1` [Example 76, 6-(((1S,2S)-2-(5-methoxy-pyridin-2-yl)cyclopropyl-)-methoxy)-2-methyl-4-(((6-methylpyridazin-3-yl)methyl)amino)pyridazin-3(2H)-one] was 0.039 nM.
As to `Cc1ncc(CNc2cc(OC[C@@H]3C[C@H]3c3nn(C)c4ccccc34)nn(C)c2=O)s1` [Example 110, 2-methyl-6-(((1R,2R)-2-(1-methyl-1H-indazol-3-yl)cyclopropyl)methoxy)-4-((2-methylthiazol-5-yl)methylamino)pyridazin-3(2H)-one], the Ki worked out at 0.077 nM.
The value for `Cn1ccc([C@H]2C[C@@H]2COc2cc(NCc3nccs3)c(=O)n(C)n2)n1` [Example 47, 2-methyl-6-(((1S,2S)-2-(1-methyl-1H-pyrazol-3-yl)cyclopropyl)methoxy)-4-((thiazol-2-ylmethyl)amino)pyridazin-3(2H)-one] was 8.21 nM; that for `Cc1cnc(CNc2cc(OC[C@H]3C[C@@H]3c3ccn(C)n3)nn(C)c2=O)s1` [Example 26, 2-methyl-6-(((1S,2S)-2-(1-methyl-1H-pyrazol-3-yl)cyclopropyl)methoxy)-4-((5-methylthiazol-2-yl)methylamino)pyridazin-3(2H)-one] was 0.097 nM; that for `Cc1ccc([C@H]2C[C@@H]2COc2cc(NCc3cn(C)nc3C(F)(F)F)c(=O)n(C)n2)nc1` [Example 104, 2-methyl-4-(((1-methyl-3-(trifluoromethyl)-1H-pyrazol-4-yl)methyl)-amino)-6-(((1S,2S)-2-(5-methylpyridin-2-yl)cyclo-propyl)methoxy)pyridazin-3(2H)-one] was 0.056 nM.
For the compound `COc1ccc([C@H]2C[C@@H]2COc2cc(NCc3ccnn3C)c(=O)n(C)n2)nc1` [Example 100, 6-(((1S,2S)-2-(5-methoxypyridin-2-yl)-cyclopropyl)methoxy)-2-methyl-4-(((1-methyl-1H-pyrazol-5-yl)methyl)-amino)pyridazin-3(2H)one], the Ki was found to be 0.192 nM.
The result for `Cn1cc(CNc2cc(OC[C@H]3C[C@@H]3c3ccc(OC(F)F)cn3)nn(C)c2=O)cn1` [Example 30, 6-(((1S,2S)-2-(5-(difluoromethoxy)pyridin-2-yl)cyclopropyl)methoxy)-2-methyl-4-((1-methyl-1H-pyrazol-4-yl)methylamino)pyridazin-3(2H)-one] reads 0.552 nM; that for `Cc1noc(C)c1CNc1cc(OC[C@H]2C[C@@H]2c2ccn(C)n2)nn(C)c1=O` [Example 61, 4-(((3,5-dimethylisoxazol-4-yl)methyl)amino)-2-methyl-6-(((1S,2S)-2-(1-methyl-1H-pyrazol-3-yl)cyclopropyl)methoxy)-pyridazin-3(2H)-one], 4.1 nM; that for `Cc1ccc(CNc2cc(OC[C@H]3C[C@@H]3c3ccn(C)n3)nn(C)c2=O)c(C)n1` [Example 51, 4-(((2,6-dimethylpyridin-3-yl)methyl)amino)-2-methyl-6-(((1S,2S)-2-(1-methyl-1H-pyrazol-3-yl)cyclopropyl)methoxy)-pyridazin-3(2H)-one], 0.023 nM.
Consider `COc1ccc([C@H]2C[C@@H]2COc2cc(NCc3ccccn3)c(=O)n(C)n2)nc1` [Example 134, 6-(((1S,2S)-2-(5-methoxy-pyridin-2-yl)-cyclopropyl-)methoxy)-2-methyl-4-(pyridin-2-yl-methyl-amino)pyridazin-3(2H)one], for which the Ki came out at 0.706 nM.
Take `Cc1ccc(CNc2cc(OC[C@H]3C[C@@H]3c3ccn(C)n3)nn(C)c2=O)cn1` [Example 20, 2-methyl-6-(((1S,2S)-2-(1-methyl-1H-pyrazol-3-yl)cyclopropyl)methoxy)-4-((6-methylpyridin-3-yl)methylamino)pyridazin-3(2H)-one]: the Ki came out at 0.806 nM.
The result for `COc1ccc([C@H]2C[C@@H]2COc2cc(NCc3c(C)nn(C)c3Cl)c(=O)n(C)n2)nc1` [Example 39, 4-((5-chloro-1,3-dimethyl-1H-pyrazol-4-yl)methylamino)-6-(((1S,2S)-2-(5-methoxypyridin-2-yl)cyclopropyl)methoxy)-2-methylpyridazin-3(2H)-one] reads 1.58 nM; that for `Cc1cc(CNc2cc(OC[C@H]3C[C@@H]3c3ccn(C)n3)nn(C)c2=O)n(C)n1` [Example 21, 4-((1,3-dimethyl-1H-pyrazol-5-yl)methylamino)-2-methyl-6-(((1S,2S)-2-(1-methyl-1H-pyrazol-3-yl)cyclopropyl)methoxy)-pyridazin-3(2H)-one], 0.044 nM.
As to `Cc1ccc([C@H]2C[C@@H]2COc2cc(NCc3cnc(C)s3)c(=O)n(C)n2)nc1` [Example 13, 2-methyl-6-(((1S,2S)-2-(5-methylpyridin-2-yl)cyclopropyl)methoxy)-4-((2-methylthiazol-5-yl)methylamino)pyridazin-3(2H)-one], the Ki is 0.011 nM.
